# In patent publication EP0944629B1, “BIARYL-PYRIDOQUINAZOLINONE DERIVATIVES AS ANTI-CANCER AGENTS” (American Cyanamid Company, priority 1996, dated 1998):
# Read-outs that look alike come from different tables or passages of the source.
# How the values were obtained:
# A2780 S = test: two cell line test procedure (sulforhodamine B cytotoxicity), A2780 S; type: cell-based; settings: A2780 S cells, 48 hours exposure
# Protocol: (§1) A2780 S and A2780 DDP cells [Biochemical and Molecular Properties of Cisplatin-resistant A2780 Cells Grown in Folinic Acid; Y. Lu, J. Hnan, and K. Scanlon, J. Biol. Chem., 263, 4891-4894, 1988.] are grown in RPMI 1640 medium containing 5% fetal calf serum, 50 µg/ml streptomycin, 50 units/ml penicillin, 50 µg/ml gentamycin, 0.03% L-glutamine, 1 nM estradiol, 1 nM testosterone, 5 µg/mlinsulin, 5 µg/ml transferrin, and 5 ng/ml selenous acid, at 37°C, in a humidified atmosphere, containing 5% CO2. Experiments are done in the same media.
# (§2) Cells are plated at the concentration of 5 x 10^4/ml on Day 0 of the experiment. On Day one control cells are fixed with trichloroacetic acid and 5 ten fold dilutions of tested compounds are added, in duplicates, to the remaining cells. On Day 3 (48 hours exposure to drugs) all cells are fixed with trichloroacetic acid, stained with 0.4% sulforhodamine B, and absorbency is read at 520 nm. The IC50s (concentration causing 50% inhibition) are determined for each drug.
# A2780 DDP = test: two cell line test procedure (sulforhodamine B cytotoxicity), A2780 DDP; type: cell-based; settings: A2780 DDP (cisplatin-resistant) cells, 48 hours exposure
# Protocol: as §1, §2
# P388 [1] = test: Murine P388 Leukemia; type: in vivo, CD2F1 mice
# Protocol: (§3) CD2F1 mice are injected i.p. with 1 x 10^6 tumor cells on Day 0 of the test. Drugs are administered i.p. on Days 1, 5, and 9 after the tumor implantation. Positive drug response is indicated by a more than 25% increase in the mean life span (% ILS), relative to placebo treated controls. Drugs are considered to be toxic when the mean life span of the drug treated animals is more than 15% shorter than placebo treated controls.
# COLON 26 = test: Murine Colon 26 Advanced, Metastatic Tumor; type: in vivo, CD2F1 mice
# Protocol: as §3, with “with 5” for “with 1”, “x 10^5” for “x 10^6”, “test. […]” for “test. Drugs are administered i.p. on Days 1, 5, and 9 after the tumor implantation.”, “be toxic,” for “be toxic”
# [2] = reported by Denny et al.; cited from earlier work
# [3] = reported by Denny et al.; cited from earlier work; remark: listed apart in the source
# P388 [4] = settings: reported by Denny et al.; cited from earlier work
# LS174T = settings: days 1,5,9
# Protocol: Human tumor fragments are implanted s.c. in athymic nude mice. Tumors are allowed to grow until they attain a mass of 100-150 mgs. […] Drugs are administered i.p. at Days 1, 5, and 9. Each mouse tumor mass is determined every 7 days, until Day 28, using caliper measurements of tumor length and width. Mean tumor mass for each group of animals is then calculated and the relative tumor growth determined. The relative tumor growth is defined as a ratio of the tumor mass on a given day to a tumor mass on Day 0. Calculation of % T/C (the relative tumor growth of treated group divided by the relative tumor growth of placebo group, multiplied by 100) is made for each day of measurement. A positive drug response is indicated by a % T/C value below 60%, and a p value in the Student t-test of less than 0.05. More than 20% deaths in the group related to the drug administration indicates toxicity.
# [5] = P388, 50 mg/kg i.p., days 1,5,9
# [6] = P388, 100 mg/kg i.p., days 1,5,9
# [7] = P388, 200 mg/kg i.p., days 1,5,9
# [8] = COLON 26, 200 mg/kg i.p., days 5,9,13
SMILES,IC50 (µg/ml) A2780 S (A2780 S) [µg/mL],IC50 (µg/ml) A2780 DDP (A2780 DDP) [µg/mL],other results
"CN(C)CCNC(=O)c1cccn2c(=O)c3cc(-c4cccc(-c5ccccc5)c4)ccc3nc12 [Example 15, 11H-Pyrido[2,1-b]quinazoline-6-carboxamide, 2-[1,1'-biphenyl]-3-yl-N-[2-(dimethylamino)ethyl]-11-oxo]",0.60,0.80,"% ILS (P388 [1]; [5]): +8%; % ILS (P388 [1]; [6]): +2%; % ILS (P388 [1]; P388, 200 mg/kg i.p., days 1,5): -40%"
CN(C)CCNC(=O)c1cccn2c(=O)c3cc(-c4cccc(C(F)(F)F)c4)ccc3nc12 [Example 18],1.10,4.20,–
"Cl.Cl.O=C(NCCNCCO)c1cccn2c(=O)c3cc(-c4ccccc4)ccc3nc12 [Example 26, 11H-pyrido[2,1-b]quinazoline-6-carboxamide, N-[2-[(2-hydroxyethyl)amino]-ethyl]-11-oxo-2-phenyl, dihydrochloride]",0.80,3.50,–
"CN(C)CCNC(=O)c1cccn2c(=O)c3ccc(-c4cccc(N)c4)cc3nc12 [Example 35, 11H-Pyrido[2,1-b]quinazoline-6-carboxamide, 3-(3-aminophenyl)-N-[2-(dimethylamino)ethyl]-11-oxo]",0.50,0.40,–
"COc1cccc2c1C(=O)c1c(O)c3c(c(O)c1C2=O)C[C@@](O)(C(=O)CO)C[C@@H]3O[C@H]1C[C@H](N)[C@H](O)[C@H](C)O1 [Adriamycin, reference compound]",–,–,"% ILS (COLON 26; COLON 26, 4 mg/kg i.p., days 5,9,14): +71%"
"CN(C)CCNC(=O)c1cccn2c(=O)c3cc(-c4ccccc4-c4ccccc4)ccc3nc12 [Example 14, 11H-Pyrido[2,1-b]quinazoline-6-carboxamide, 2-[1,1'biphenyl]-2-yl-N-[2-(dimethylamino)ethyl]-11-oxo]",4.40,4.80,–
"CN(C)CCNC(=O)c1cccn2c(=O)c3cc(-c4cccc5ccccc45)ccc3nc12 [Example 17, 11H-pyrido[2,1-b)quinazoline-6-carboxamide, N-[2-(dimethylamino)ethyl]-2-(1-naphthalenyl)-11-oxo]",4.60,4.70,–
"Cl.Cl.Cl.Nc1ccccc1-c1ccc2nc3c(C(=O)NCCNCCO)cccn3c(=O)c2c1 [Example 30, 11H-Pyrido[2,1-b]quinazoline-6-carboxamide, 2-(2-aminophenyl)-N-[2-[(2-hydroxyethyl)amino]ethyl]-11-oxo-trihydrochloride]",4.80,6.90,–
"CN(C)CCNC(=O)c1cccn2c(=O)c3ccccc3nc12 [I, N-[2-(dimethylamino)ethyl]-11-oxo-11H-pyrido[2,1-b]quinalzoline-6-carboxamide]",–,–,in vitro activity [2]: some in vitro activity; mutagenic activity [3]: mutagenic activity; activity in a P388 mouse model (P388 [4]): inactive
"COc1ccc(-c2ccc3nc4c(C(=O)NCCN(C)C)cccn4c(=O)c3c2)cc1 [Example 19, 11H-Pyrido[2,1-b]quinazoline-6-carboxamide, N-[2-(dimethylamino)ethyl]-2-(4-methoxyphenyl)-11-oxo]",4.30,3.40,% ILS (P388 [1]; [5]): -9%; % ILS (P388 [1]; [6]): +4%; % ILS (P388 [1]; [7]): +6%
"CC[C@]1(O)C[C@H]2CN(CCc3c([nH]c4ccccc34)[C@@](C(=O)OC)(c3cc4c(cc3OC)N(C=O)[C@H]3[C@@](O)(C(=O)OC)[C@H](OC(C)=O)[C@]5(CC)C=CCN6CC[C@]43[C@@H]65)C2)C1 [Vincristine, reference compound]",–,–,"% ILS (P388 [1]; P388, 0.8 mg/kg i.p., days 1,5,9): +114%; %T/C (LS174T; 1.0 mg/kg i.p.): 52 %T/C"
"Cl.Cl.Cl.Nc1cccc(-c2ccc3nc4c(C(=O)NCCNCCO)cccn4c(=O)c3c2)c1 [Example 24, 11H-Pyrido [2,1-b]quinazoline-6-carboxamide, 2-(3-aminophenyl)-N-[2-[(2-hydroxyethyl)amino]ethyl]-11-oxo-trihydrochloride]",0.60,2.10,"% ILS (P388 [1]; P388, 25 mg/kg i.p., days 1,5,9): +12%; % ILS (P388 [1]; [5]): +4%; % ILS (P388 [1]; [6]): +4%; % ILS (P388 [1]; [7]): 0%; % ILS (COLON 26; [8]): +24%; % ILS (COLON 26; COLON 26, 300 mg/kg i.p., days 5,9,13): -24%"
"CN(C)CCNC(=O)c1cccn2c(=O)c3cc(-c4cccc(N(C)C)c4)ccc3nc12 [Example 21, 11H-Pyrido[2,1-b]quinazoline-6-carboxamide, N-[2-(dimethylamino)ethyl]-2-[3-(dimethylamino)phenyl]-11-oxo]",0.20,0.50,–
"CN(C)CCNC(=O)c1cccn2c(=O)c3cc(-c4cc(C(F)(F)F)cc(C(F)(F)F)c4)ccc3nc12 [Example 20, 11H-Pyrido[2,1-b]quinazoline-6-carboxamide, 2-[3,5-bis(trifluoromethyl)phenyl]-N-[2-(dimethylamino)ethyl]-11-oxo]",3.80,3.00,–
"CN(C)CCNC(=O)c1cccn2c(=O)c3cc(-c4cccc(N)c4)ccc3nc12 [Example 13, 11H-Pyrido[2,1-b]quinazoline-6-carboxamide, 2-(3-aminophenyl)-N-[2-(dimethyl-amino)ethyl]-11-oxo]",0.40,3.70,"% ILS (P388 [1]; [5]): +2%; % ILS (P388 [1]; [6]): +20%; % ILS (P388 [1]; [7]): +57%; % ILS (COLON 26; COLON 26, 100 mg/kg i.p., days 5,9,13): +18%; % ILS (COLON 26; [8]): +24%; % ILS (COLON 26; COLON 26, 250 mg/kg i.p., days 5,9,13): +35%; %T/C (LS174T; 250 mg/kg i.p.): 59 %T/C; %T/C (LS174T; 300 mg/kg i.p.): 44 %T/C"
CN(C)CCNC(=O)c1cccn2c(=O)c3cc(-c4cc5ccccc5c5ccccc45)ccc3nc12 [Example 16],4.10,5.30,–
